Test results published in patent US20150182629A1, “STABLE COMPOSITIONS OF FESOTERODINE” (HETERO RESEARCH FOUNDATION, priority 2012, published 2015).

Assay: Stability evaluation of drug-excipient blend (impurities initially and after storage)
Assay type: physicochemical
Experimental: According to the present invention stability of drug-excipient blend was evaluated based on percentage w/w of 2-((R)-3-(diisopropylamino)-1-phenylpropyl)-4-(hydroxymethyl)phenol impurity (H-FTFRC-01) and total impurities present in drug-excipient blend, initially and after storage for one month at 40° C. and 75% relative humidity.

CC(C)C(=O)Oc1ccc(CO)cc1[C@H](CCN(C(C)C)C(C)C)c1ccccc1.O=C(O)/C=C/C(=O)O [Fesoterodine fumarate, isobutyric acid 2-((R)-3-diisopropylammonium-1phenylpropyl)-4-(hydroxymethyl) phenyl ester hydrogen fumarate]
H-FTFRC-01 impurity (40° C./75% RH, 1 month): 0.524 % w/w | Total Impurities (40° C./75% RH, 1 month): 1.245 % w/w | H-FTFRC-01 impurity (Initial): 0.284 % w/w | Total Impurities (Initial): 0.800 % w/w
